The source of these data is US11701379B2, “In vitro and in vivo intracellular delivery of siRNA via self-assembled nanopieces” (Rhode Island Hospital, priority 2018, dated 2023).

The assay has as its system MMP-13 mRNA. As to the kind of experiment: MMP-13 molecular beacon validation in chondrocytes with/without IL-1β. The format is cell-based, mouse. To be noted: realtime rtPCR. On the procedure: Fluorescence labeled GAPDH molecular beacon and fluorescence labeled MMP-13 molecular beacon or fluorescence labeled scrambled molecular beacon delivered with Nanopieces was added into chondrocytes under standard cell culture conditions or stimulated with 10 ng/mL IL-1β (FIG. 29).
Using an established method (Tyagi et al Nat. Biotech, 1998, 16:49-53), MBs were designed to target mouse MMP-13 or GAPDH mRNA with a fluorophore/quench pair. Scramble sequence MB (Scramble) was verified to not bind with any mouse mRNA via BLAST. In vitro delivery and validation: MBs were delivered into chondrocytes by Nanopieces. Specifically, after stimulation with IL-1β for 24 hours, chondrocytes were co-transfected GAPDH and scramble MBs or GAPDH and MMP-13 MBs via Nanopieces. Real time RT-PCR and fluorescence microscopy were used to verify the stimulation of MMP-13 expression and the successful fluorescence signal resulted from MMP-13 MB.
To test the efficacy of mRNA detection in chondrocytes using MBs delivered by Nanopieces, primary mouse chondrocytes were transfected with MBs either with or without IL-1β treatment. Before IL-1β treatment, the housekeeping GAPDH MB was detected while the MMP-13 MB was not (FIG. 29, left panels). In contrast, after IL-1β treatment, both GAPDH MB and MMP-13 MB were detected, indicating the induction of MMP-13 mRNA levels by IL-1β (FIG. 29, right panels). […]

For “IL-1β: cytokine used to stimulate chondrocytes”, the “up-regulation of MMP-13 mRNA level” value is reported as “about 10 times”.
